Laboratory results taken from patent US20250136629A1, “SELF-ASSEMBLED NANOPARTICLES FOR PHOTOTHERMAL THERAPY” (The University of Hong Kong, priority 2023, published 2025).

Assay: Air stability of the complexes (observation)
Assay type: physicochemical

**Q.** For [Fe(II)-ppy-tpy-Cl] [Complex R], which air stability is on record?
**A.** slightly air-sensitive in both the solid and solution states
